From patent US20120270237A9, “METHODS FOR THE IDENTIFICATION OF KINASE INTERACTING MOLECULES AND FOR THE PURIFICATION OF KINASE PROTEINS” (Cellzone AG, priority 2009, published 2012) come the findings set out here.

Assay in all cases: Kinobeads competition binding, HL60 cell lysate
What all share (set-up): endogenous in cells
Holding throughout (conditions): 10 μM free compound

For one experiment, the target named is SLK (Homo sapiens, UniProt Q9H2G2). Put shortly: (§1)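 HL60 lysate (50 mg protein) pre-incubated with 10 μM free compound or 0.5% DMSO, then captured on beads bearing the immobilized compound for 2 h at 4 °C. Eluted proteins were trypsin-digested in-gel, iTRAQ-labeled and quantified by LC-MS/MS from reporter-ion peak areas relative to the DMSO control.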
The target of the next experiment is CaMK2d (Homo sapiens, UniProt Q13557). The procedure, abridged: as §1
The target in a further experiment is T1, NEK9 (Homo sapiens, UniProt Q8TD19).
T1 sequence (Q8TD19 1-979): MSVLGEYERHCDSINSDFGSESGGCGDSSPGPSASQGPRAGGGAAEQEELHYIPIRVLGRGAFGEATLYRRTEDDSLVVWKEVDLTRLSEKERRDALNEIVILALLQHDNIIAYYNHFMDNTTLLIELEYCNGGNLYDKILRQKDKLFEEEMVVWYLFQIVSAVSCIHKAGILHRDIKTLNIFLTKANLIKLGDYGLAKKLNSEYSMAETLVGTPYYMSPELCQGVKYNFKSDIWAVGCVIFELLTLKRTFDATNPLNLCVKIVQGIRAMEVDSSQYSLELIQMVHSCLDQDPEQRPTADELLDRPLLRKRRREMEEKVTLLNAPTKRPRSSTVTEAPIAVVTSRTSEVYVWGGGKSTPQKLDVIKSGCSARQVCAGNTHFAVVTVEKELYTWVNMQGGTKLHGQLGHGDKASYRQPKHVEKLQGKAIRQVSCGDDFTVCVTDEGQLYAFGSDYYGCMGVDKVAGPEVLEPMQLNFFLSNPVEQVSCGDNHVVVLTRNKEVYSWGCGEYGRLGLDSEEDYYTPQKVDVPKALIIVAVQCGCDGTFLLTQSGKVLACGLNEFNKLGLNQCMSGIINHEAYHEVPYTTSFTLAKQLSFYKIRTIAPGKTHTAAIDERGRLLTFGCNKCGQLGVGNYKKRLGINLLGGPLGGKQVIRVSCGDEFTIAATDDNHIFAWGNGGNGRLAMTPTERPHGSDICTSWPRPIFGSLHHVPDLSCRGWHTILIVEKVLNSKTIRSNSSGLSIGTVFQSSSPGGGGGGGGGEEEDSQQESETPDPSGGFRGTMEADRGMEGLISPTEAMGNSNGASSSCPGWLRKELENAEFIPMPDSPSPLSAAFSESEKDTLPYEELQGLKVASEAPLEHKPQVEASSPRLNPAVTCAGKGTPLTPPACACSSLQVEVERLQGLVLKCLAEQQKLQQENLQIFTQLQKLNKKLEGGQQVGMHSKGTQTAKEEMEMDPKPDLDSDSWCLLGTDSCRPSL
The procedure, abridged:
as §1

A further experiment concerns the target STK33 (Homo sapiens, UniProt Q9BYT3). Put shortly: as §1
For a further experiment, the target named is AAK1 (Homo sapiens, UniProt Q2M2I8). Put shortly: as §1
Another experiment concerns the target JAK2 (Homo sapiens, UniProt O60674). The procedure, abridged: as §1

Sequence of STK33 (Q9BYT3 whole entry): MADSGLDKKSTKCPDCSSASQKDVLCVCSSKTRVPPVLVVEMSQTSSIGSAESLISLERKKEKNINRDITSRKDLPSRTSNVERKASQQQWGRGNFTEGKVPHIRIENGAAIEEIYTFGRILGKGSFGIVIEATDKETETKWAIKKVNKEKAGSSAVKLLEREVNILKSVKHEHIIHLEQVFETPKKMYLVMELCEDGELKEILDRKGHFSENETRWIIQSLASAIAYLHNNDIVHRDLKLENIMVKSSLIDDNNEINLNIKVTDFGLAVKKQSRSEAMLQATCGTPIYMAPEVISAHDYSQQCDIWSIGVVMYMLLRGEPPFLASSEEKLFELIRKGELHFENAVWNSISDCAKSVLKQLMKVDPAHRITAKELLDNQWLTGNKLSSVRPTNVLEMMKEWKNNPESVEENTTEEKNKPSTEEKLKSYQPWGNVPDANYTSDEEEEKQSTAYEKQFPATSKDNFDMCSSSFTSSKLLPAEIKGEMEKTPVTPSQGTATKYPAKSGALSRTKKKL
Sequence of CaMK2d (Q13557 whole entry): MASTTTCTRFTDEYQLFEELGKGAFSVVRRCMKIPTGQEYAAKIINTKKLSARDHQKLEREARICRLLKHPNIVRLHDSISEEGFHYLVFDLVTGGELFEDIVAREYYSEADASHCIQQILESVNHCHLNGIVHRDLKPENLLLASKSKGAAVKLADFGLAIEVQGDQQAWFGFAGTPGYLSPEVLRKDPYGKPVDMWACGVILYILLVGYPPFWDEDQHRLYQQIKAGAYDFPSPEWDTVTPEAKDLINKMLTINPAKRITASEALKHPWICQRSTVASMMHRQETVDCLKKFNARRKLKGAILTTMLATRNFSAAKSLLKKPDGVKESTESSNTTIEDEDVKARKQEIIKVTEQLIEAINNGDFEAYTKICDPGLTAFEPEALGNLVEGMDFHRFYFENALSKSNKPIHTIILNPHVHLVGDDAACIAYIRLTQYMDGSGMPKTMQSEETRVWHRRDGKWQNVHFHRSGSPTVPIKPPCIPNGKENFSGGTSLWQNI
Sequence of AAK1 (Q2M2I8 whole entry): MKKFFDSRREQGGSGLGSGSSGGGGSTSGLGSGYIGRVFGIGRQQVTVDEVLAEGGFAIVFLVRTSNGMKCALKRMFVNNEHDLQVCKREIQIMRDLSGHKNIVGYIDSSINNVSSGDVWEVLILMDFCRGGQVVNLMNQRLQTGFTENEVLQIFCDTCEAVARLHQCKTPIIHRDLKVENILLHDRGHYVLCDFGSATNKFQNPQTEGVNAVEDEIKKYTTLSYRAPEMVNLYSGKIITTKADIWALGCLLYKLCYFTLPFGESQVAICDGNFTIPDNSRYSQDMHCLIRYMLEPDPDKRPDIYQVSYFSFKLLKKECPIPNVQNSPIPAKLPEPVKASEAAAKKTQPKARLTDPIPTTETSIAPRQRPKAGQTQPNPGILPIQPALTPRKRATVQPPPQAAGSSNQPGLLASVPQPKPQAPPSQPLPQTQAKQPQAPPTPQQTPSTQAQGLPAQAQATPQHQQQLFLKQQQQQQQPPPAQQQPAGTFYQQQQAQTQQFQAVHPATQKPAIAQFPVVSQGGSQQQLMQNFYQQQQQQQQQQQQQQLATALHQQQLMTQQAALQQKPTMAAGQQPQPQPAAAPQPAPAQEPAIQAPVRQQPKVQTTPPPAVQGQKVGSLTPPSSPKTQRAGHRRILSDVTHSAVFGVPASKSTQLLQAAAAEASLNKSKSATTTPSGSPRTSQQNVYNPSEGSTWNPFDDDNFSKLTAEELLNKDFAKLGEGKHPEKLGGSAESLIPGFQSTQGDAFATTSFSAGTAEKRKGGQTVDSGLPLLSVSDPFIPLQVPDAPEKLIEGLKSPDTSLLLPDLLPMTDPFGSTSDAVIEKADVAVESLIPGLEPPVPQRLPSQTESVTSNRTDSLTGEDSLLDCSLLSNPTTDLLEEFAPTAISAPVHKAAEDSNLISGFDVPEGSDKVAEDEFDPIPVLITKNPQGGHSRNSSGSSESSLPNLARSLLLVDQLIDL
Sequence of JAK2 (O60674 whole entry): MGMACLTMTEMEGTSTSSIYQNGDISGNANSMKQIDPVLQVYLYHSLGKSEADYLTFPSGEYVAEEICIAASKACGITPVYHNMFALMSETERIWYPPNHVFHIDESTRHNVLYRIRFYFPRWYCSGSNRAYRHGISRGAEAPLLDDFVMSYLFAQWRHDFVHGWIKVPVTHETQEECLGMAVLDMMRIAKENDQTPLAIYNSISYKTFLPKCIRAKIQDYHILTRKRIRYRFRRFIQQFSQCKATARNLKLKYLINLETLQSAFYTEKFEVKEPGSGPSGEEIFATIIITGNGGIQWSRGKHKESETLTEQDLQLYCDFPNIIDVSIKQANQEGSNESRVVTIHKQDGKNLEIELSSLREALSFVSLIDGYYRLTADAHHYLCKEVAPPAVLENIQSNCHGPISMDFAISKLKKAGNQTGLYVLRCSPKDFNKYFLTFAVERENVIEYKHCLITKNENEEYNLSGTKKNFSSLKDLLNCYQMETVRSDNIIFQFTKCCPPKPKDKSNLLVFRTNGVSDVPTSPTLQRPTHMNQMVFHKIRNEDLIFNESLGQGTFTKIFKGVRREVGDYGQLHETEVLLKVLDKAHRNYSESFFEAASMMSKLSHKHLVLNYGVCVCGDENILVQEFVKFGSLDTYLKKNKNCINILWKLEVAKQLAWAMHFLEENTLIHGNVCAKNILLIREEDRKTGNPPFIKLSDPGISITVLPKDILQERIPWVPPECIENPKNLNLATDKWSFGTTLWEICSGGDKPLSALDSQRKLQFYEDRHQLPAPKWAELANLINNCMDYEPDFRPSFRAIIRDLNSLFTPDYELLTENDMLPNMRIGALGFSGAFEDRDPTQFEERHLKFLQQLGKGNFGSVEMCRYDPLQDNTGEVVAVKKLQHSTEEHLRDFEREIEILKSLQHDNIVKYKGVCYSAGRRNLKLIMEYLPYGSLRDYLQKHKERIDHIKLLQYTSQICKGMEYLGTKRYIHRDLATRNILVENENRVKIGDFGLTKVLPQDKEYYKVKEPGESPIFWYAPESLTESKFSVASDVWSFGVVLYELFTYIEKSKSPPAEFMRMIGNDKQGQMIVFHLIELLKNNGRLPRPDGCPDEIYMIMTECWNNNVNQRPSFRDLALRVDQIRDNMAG
Sequence of SLK (Q9H2G2 whole entry): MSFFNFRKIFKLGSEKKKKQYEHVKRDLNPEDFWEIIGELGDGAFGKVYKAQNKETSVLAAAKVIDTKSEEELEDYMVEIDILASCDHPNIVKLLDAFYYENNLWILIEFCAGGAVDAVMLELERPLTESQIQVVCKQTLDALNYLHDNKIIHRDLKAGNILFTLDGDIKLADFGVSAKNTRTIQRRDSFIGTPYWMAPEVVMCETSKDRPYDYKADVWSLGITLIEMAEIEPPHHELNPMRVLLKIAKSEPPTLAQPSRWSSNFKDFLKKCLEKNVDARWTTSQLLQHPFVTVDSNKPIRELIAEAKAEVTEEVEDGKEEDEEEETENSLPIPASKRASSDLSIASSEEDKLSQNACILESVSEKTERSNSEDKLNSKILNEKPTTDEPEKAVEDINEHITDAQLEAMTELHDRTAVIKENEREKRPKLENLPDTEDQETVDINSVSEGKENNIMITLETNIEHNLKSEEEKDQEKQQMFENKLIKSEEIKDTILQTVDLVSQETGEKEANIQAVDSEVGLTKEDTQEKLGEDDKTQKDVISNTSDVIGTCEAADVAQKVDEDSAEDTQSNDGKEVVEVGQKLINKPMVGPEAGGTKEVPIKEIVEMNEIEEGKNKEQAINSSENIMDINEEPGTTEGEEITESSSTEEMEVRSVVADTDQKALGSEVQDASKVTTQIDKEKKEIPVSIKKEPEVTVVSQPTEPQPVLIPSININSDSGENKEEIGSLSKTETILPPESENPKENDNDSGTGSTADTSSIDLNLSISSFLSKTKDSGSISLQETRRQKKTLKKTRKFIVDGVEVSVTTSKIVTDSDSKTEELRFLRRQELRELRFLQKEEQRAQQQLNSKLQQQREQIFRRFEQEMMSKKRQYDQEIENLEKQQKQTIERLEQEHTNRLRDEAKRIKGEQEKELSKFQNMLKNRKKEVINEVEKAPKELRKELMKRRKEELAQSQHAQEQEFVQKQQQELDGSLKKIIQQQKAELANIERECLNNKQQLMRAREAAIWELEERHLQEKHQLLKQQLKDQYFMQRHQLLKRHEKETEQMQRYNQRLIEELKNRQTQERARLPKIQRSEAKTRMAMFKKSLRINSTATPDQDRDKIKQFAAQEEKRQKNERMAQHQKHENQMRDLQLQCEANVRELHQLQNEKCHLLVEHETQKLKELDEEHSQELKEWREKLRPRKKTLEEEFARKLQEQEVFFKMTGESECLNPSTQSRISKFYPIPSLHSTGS

As for `CS(=O)(=O)Nc1ccccc1Nc1nc(Nc2cccc(OCCN)c2)ncc1Cl` [CZC31326, N-(2-(2-(3-(2-aminoethoxy)phenylamino)-5-chloropyrimidin-4-ylamino)phenyl)methanesulfonamide], the inhibition at 10 µM on SLK is 97.5%; at CaMK2d, 90.4%; at NEK9, 93%; on STK33, 96.9%; on AAK1, 97.8%. Further, on JAK2, the Competition % is 96.8%.

One may read the inhibition as how much of the control response was suppressed.
